# “And” between values parts separate entries of the source, which are not always exact repeats. Equal entries are not always repeated. Where two headings read alike, the source gives them in different places.
# Assay: Pharmacokinetics of ciprofol in rats pretreated with psoralen, clopidogrel or CMC
# Type: in vivo, rat
# Conditions: ciprofol 2.4 mg·kg^-1 i.v.; for concentration at 20 min: T 20.00 min; for concentration at 30 min: T 30.00 min; for concentration at 45 min: T 45.00 min; for concentration at 2 min: T 2.00 min; for concentration at 8 min: T 8.00 min; for concentration at 12 min: T 12.00 min; for concentration at 16 min: T 16.00 min
# Method: 5 μL of IS solution (2.5 μg·mL^-1 D6-ciprofol) was added to 100 μL of plasma and mixed. Then, 300 μL of acetonitrile was added. The mixture was vortexed for 2 min and centrifuged for 10 min, and the supernatant was transferred to an autosampler vial for HPLC-MS/MS detection.
# Twenty-four SD rats were randomly and equally divided into three groups: the control group, psoralen group and clopidogrel group. The administration scheme was as follows: the control group received 0.5% carboxy methyl cellulose by gavage (1 mL·200 g^-1), the psoralen group received 27 mg·kg^-1 psoralen by gavage, and the clopidogrel group was gavaged with 7.5 mg·kg^-1 clopidogrel. […] All rats were treated once daily for seven days. Each rat was injected with 2.4 mg·kg^-1 ciprofol via the tail vein 12 h after the end of dosing on Day 7. Rats that received ciprofol injection were placed on a flat and soft insulation pad. Timekeeping began when the rats were in the supine position and lost the righting reflex and ended when the rats could turn to the prone position successfully. The duration of loss of righting reflex (LORR) in each rat was measured. During this period, approximately 300 μL of blood was collected from the inner canthus at 2, 4, 8, 12, 16, 20, 30, 45, and 60 min after ciprofol administration, and the plasma was separated. The plasma was processed and measured as described in Section 2.4.3, and DAS 2.0 software and a noncompartmental model were used to analyse the pharmacokinetic parameters.
# IBM SPSS Statistics 27 software was used to analyse the main pharmacokinetic parameters, and GraphPad Prism 8.0.2 software was used for graphical visualization. One-way ANOVA was used, and multiple comparisons were performed using the least significant difference (LSD)-T test, for which P < 0.05 indicated a significant difference.
# [1] = SD, rat, plasma, intravenous, 2.4 mg/kg, rats, Clopidogrel group (7.5 mg·kg^-1 gavage daily 7 d), n = 8
# [2] = SD, rat, plasma, intravenous, 2.4 mg/kg, rats, Control group (0.5% CMC gavage 7 d), n = 8
# [3] = SD, rat, plasma, intravenous, 2.4 mg/kg, rats, Psoralen group (27 mg·kg^-1 gavage daily 7 d), n = 8
# [4] = SD, rat, plasma, iv, 2.4 mg/kg, Control (CMC-Na), rats No.1-8 and Mean
# [5] = SD, rat, plasma, iv, 2.4 mg·kg^-1, Control (CMC-Na), rats No.1-8 and Mean
# [6] = SD, rat, plasma, iv, 6.75 mg/kg, Clopidogrel(6.75mg/kg)group, rats No.1-8 and Mean
# [7] = SD, rat, plasma, iv, 27 mg/kg, Psoralen(27mg/kg)group, rats No.1-8 and Mean
structure (smiles),measurement,setting,value
CC(C)c1cccc([C@H](C)C2CC2)c1O [ciprofol],Tmax,"Control (CMC-Na), rats No.1-8 and Mean",2.00 min
same,Tmax,"Psoralen(27mg/kg)group, rats No.1-8 and Mean",2.00 min
same,CLz,"Psoralen(27mg/kg)group, rats No.1-8 and Mean, 27 mg/kg",140 mL/min/kg and 120 mL/min/kg and 130 mL/min/kg
same,clearance,"SD, rat, plasma, Psoralen(27mg/kg)group, rats No.1-8 and Mean, read-out: CLz",130 mL/min/kg
same,AUC(0-inf),[1],318 ± 45 ng·h/mL
same,AUC(0-t),[1],296 ± 40.8 ng·h/mL
same,Cmax,[1],1490 ± 292 ng/mL
same,clearance,"SD, rat, plasma, intravenous, 2.4 mg/kg, rats, Clopidogrel group (7.5 mg·kg^-1 gavage daily 7 d), n = 8, read-out: CL (converted)",128 mL/min/kg
same,MRT last,"SD, rat, plasma, intravenous, 2.4 mg/kg, rats, Clopidogrel group (7.5 mg·kg^-1 gavage daily 7 d), n = 8, read-out: MRT0-t",12.6 ± 1.2 min
same,MRT inf,"SD, rat, plasma, intravenous, 2.4 mg/kg, rats, Clopidogrel group (7.5 mg·kg^-1 gavage daily 7 d), n = 8, read-out: MRT0-∞",18.6 ± 6.6 min
same,Vd,"SD, rat, plasma, intravenous, 2.4 mg/kg, rats, Clopidogrel group (7.5 mg·kg^-1 gavage daily 7 d), n = 8, read-out: Vd",3.71 ± 2.03 L/kg
same,half-life,"SD, rat, plasma, intravenous, 2.4 mg/kg, rats, Clopidogrel group (7.5 mg·kg^-1 gavage daily 7 d), n = 8, read-out: t1/2 (converted)",21 ± 13.8 min
same,AUC(0-inf),[2],268 ± 35.5 ng·h/mL
same,AUC(0-t),[2],260 ± 35.1 ng·h/mL
same,Cmax,[2],1550 ± 173 ng/mL
same,clearance,"SD, rat, plasma, intravenous, 2.4 mg/kg, rats, Control group (0.5% CMC gavage 7 d), n = 8, read-out: CL (converted)",152 mL/min/kg
same,MRT last,"SD, rat, plasma, intravenous, 2.4 mg/kg, rats, Control group (0.5% CMC gavage 7 d), n = 8, read-out: MRT0-t",10.8 ± 0.6 min
same,MRT inf,"SD, rat, plasma, intravenous, 2.4 mg/kg, rats, Control group (0.5% CMC gavage 7 d), n = 8, read-out: MRT0-∞",13.2 ± 2.4 min
same,Vd,"SD, rat, plasma, intravenous, 2.4 mg/kg, rats, Control group (0.5% CMC gavage 7 d), n = 8, read-out: Vd",3.02 ± 0.72 L/kg
same,half-life,"SD, rat, plasma, intravenous, 2.4 mg/kg, rats, Control group (0.5% CMC gavage 7 d), n = 8, read-out: t1/2 (converted)",13.8 ± 3 min
same,AUC(0-inf),[3],315 ± 23.4 ng·h/mL
same,AUC(0-t),[3],299 ± 17.6 ng·h/mL
same,Cmax,[3],1490 ± 200 ng/mL
same,clearance,"SD, rat, plasma, intravenous, 2.4 mg/kg, rats, Psoralen group (27 mg·kg^-1 gavage daily 7 d), n = 8, read-out: CL (converted)",128 mL/min/kg
same,MRT last,"SD, rat, plasma, intravenous, 2.4 mg/kg, rats, Psoralen group (27 mg·kg^-1 gavage daily 7 d), n = 8, read-out: MRT0-t",13.8 ± 1.2 min
same,MRT inf,"SD, rat, plasma, intravenous, 2.4 mg/kg, rats, Psoralen group (27 mg·kg^-1 gavage daily 7 d), n = 8, read-out: MRT0-∞",16.8 ± 3 min
same,Vd,"SD, rat, plasma, intravenous, 2.4 mg/kg, rats, Psoralen group (27 mg·kg^-1 gavage daily 7 d), n = 8, read-out: Vd",2.8 ± 0.46 L/kg
same,half-life,"SD, rat, plasma, intravenous, 2.4 mg/kg, rats, Psoralen group (27 mg·kg^-1 gavage daily 7 d), n = 8, read-out: t1/2 (converted)",15.6 ± 3 min
same,concentration at 20 min,[4],159 ng/mL
same,concentration at 30 min,[4],93.3 ng/mL
same,concentration at 45 min,[4],67.3 ng/mL
same,Cmax,[4],1550 ng/mL
same,clearance,"SD, rat, plasma, iv, 2.4 mg/kg, Control (CMC-Na), rats No.1-8 and Mean, read-out: CLz",150 mL/min/kg
same,MRT last,"SD, rat, plasma, iv, 2.4 mg/kg, Control (CMC-Na), rats No.1-8 and Mean, read-out: MRT(0-t) (converted)",10.8 min
same,MRT inf,"SD, rat, plasma, iv, 2.4 mg/kg, Control (CMC-Na), rats No.1-8 and Mean, read-out: MRT(0-∞) (converted)",12.9 min
same,Vd,"SD, rat, plasma, iv, 2.4 mg/kg, Control (CMC-Na), rats No.1-8 and Mean, read-out: Vz",3.02 L/kg
same,half-life,"SD, rat, plasma, iv, 2.4 mg/kg, Control (CMC-Na), rats No.1-8 and Mean, read-out: t1/2z",13.8 min
same,concentration at 2 min,[5],1500 ng/mL
same,concentration at 8 min,[5],419 ng/mL
same,concentration at 12 min,[5],312 ng/mL
same,concentration at 16 min,[5],224 ng/mL
same,concentration at 2 min,[6],1050 ng/mL
same,concentration at 8 min,[6],406 ng/mL
same,concentration at 12 min,[6],334 ng/mL
same,concentration at 16 min,[6],266 ng/mL
same,concentration at 20 min,[6],193 ng/mL
same,concentration at 45 min,[6],65.7 ng/mL
same,concentration at 60 min,"SD, rat, plasma, iv, 6.75 mg/kg, Clopidogrel(6.75mg/kg)group, T 60.00 min, rats No.1-8 and Mean",43.3 ng/mL
same,Cmax,[6],1490 ng/mL
same,clearance,"SD, rat, plasma, iv, 6.75 mg/kg, Clopidogrel(6.75mg/kg)group, rats No.1-8 and Mean, read-out: CLz",130 mL/min/kg
same,MRT last,"SD, rat, plasma, iv, 6.75 mg/kg, Clopidogrel(6.75mg/kg)group, rats No.1-8 and Mean, read-out: MRT(0-t) (converted)",12.6 min
same,concentration at 2 min,[7],1560 ng/mL
same,concentration at 4 min,"SD, rat, plasma, iv, 27 mg/kg, Psoralen(27mg/kg)group, T 4.00 min, rats No.1-8 and Mean",895 ng/mL
same,concentration at 8 min,[7],532 ng/mL
same,concentration at 12 min,[7],374 ng/mL
same,concentration at 16 min,[7],348 ng/mL
same,concentration at 20 min,[7],203 ng/mL
same,concentration at 30 min,[7],145 ng/mL
same,Cmax,[7],1490 ng/mL
same,MRT last,"SD, rat, plasma, iv, 27 mg/kg, Psoralen(27mg/kg)group, rats No.1-8 and Mean, read-out: MRT(0-t) (converted)",13.6 min
same,MRT inf,"SD, rat, plasma, iv, 27 mg/kg, Psoralen(27mg/kg)group, rats No.1-8 and Mean, read-out: MRT(0-∞) (converted)",17 min
same,Vd,"SD, rat, plasma, iv, 27 mg/kg, Psoralen(27mg/kg)group, rats No.1-8 and Mean, read-out: Vz",2.8 L/kg
same,half-life,"SD, rat, plasma, iv, 27 mg/kg, Psoralen(27mg/kg)group, rats No.1-8 and Mean, read-out: t1/2z",15.4 min
same,Tmax,"SD, rat, plasma, iv, Clopidogrel(6.75mg/kg)group, rats No.1-8 and Mean, read-out: Tmax (converted)",2 min
same,Tmax,"SD, rat, plasma, iv, Control (CMC-Na), rats No.1-8 and Mean, read-out: Tmax (converted)",2 min
same,Tmax,"SD, rat, plasma, iv, Psoralen(27mg/kg)group, rats No.1-8 and Mean, read-out: Tmax (converted)",2 min

# — PMC11285948, “The effects of CYP2B6 inactivators on the metabolism of ciprofol” (PLOS ONE, 2024)
